Converted amounts (≈) assume the structure as drawn.
How the values were obtained:
[1] = system: kanamycin-resistant bacteria; settings: in words, prior work; cited from earlier work
[2] = system: Pseudomonas aeruginosa A3; experiment: M.I.C. by standard serial dilution method; format: cell-based; settings: P. aeruginosa A3, nutrient agar, 37° C, 18 hours, read-out: minimum inhibitory concentration (M.I.C.)
Experimental: (§1) These particular compounds, that is, 1-n-(α-hydroxy-ω-aminoalkanoyl)-3'-deoxy-5-O-pentofuranosylneamines according to the aforesaid general formula (I) have useful antibacterial activity against a wide variety of bacteria, including gram-negative bacteria and gram-positive bacteria. The minimum inhibitory concentration (M.I.C.) (mcg/ml) of these compounds against various organisms was determined by a standard serial dilution method at an incubation temperature of 37° C, the estimation being made after 18 hours incubation or each test organism, except that the incubation time was 48 hours for Mycobacterium smegmatis. The incubation medium used was nutrient agar.

[3] = system: Pseudomonas aeruginosa GN 315; experiment: M.I.C. by standard serial dilution method; format: cell-based; settings: GN315, P. aeruginosa GN 315, nutrient agar, 37° C, 18 hours, read-out: minimum inhibitory concentration (M.I.C.)
Experimental: as §1

[4] = system: Escherichia coli K-12 LA 290 R56; experiment: M.I.C. by standard serial dilution method; format: cell-based; settings: K12LA290R56, 18 h, read-out: minimum inhibitory concentration (M.I.C.)
Experimental: as §1

Proteus rettgeri GN 311 = experiment: M.I.C. by standard serial dilution method; format: cell-based; settings: Providencia rettgeri, GN311, nutrient agar, 37° C, 18 hours, read-out: minimum inhibitory concentration (M.I.C.)
Experimental: as §1

Salmonella typhosa T-63 = experiment: M.I.C. by standard serial dilution method; format: cell-based; settings: Salmonella enterica, 18 h, read-out: minimum inhibitory concentration (M.I.C.)
Experimental: as §1

[5] = system: Escherichia coli K-12 ML 1410; experiment: M.I.C. by standard serial dilution method; format: cell-based; settings: K12ML1410, E. coli K-12 ML 1410, nutrient agar, 37° C, 18 hours, read-out: minimum inhibitory concentration (M.I.C.)
Experimental: as §1

[6] = system: Klebsiella pneumoniae Type 22, No. 3038; experiment: M.I.C. by standard serial dilution method; format: cell-based; settings: K. pneumoniae Type 22, No. 3038, nutrient agar, 37° C, 18 hours, read-out: minimum inhibitory concentration (M.I.C.)
Experimental: as §1

[7] = system: Staphylococcus aureus FDA 209P; experiment: M.I.C. by standard serial dilution method; format: cell-based; settings: FDA209P, S. aureus FDA 209P, nutrient agar, 37° C, 18 hours, read-out: minimum inhibitory concentration (M.I.C.)
Experimental: as §1

[8] = system: Klebsiella pneumoniae PCI 602; experiment: M.I.C. by standard serial dilution method; format: cell-based; settings: PCI602, K. pneumoniae PCI 602, nutrient agar, 37° C, 18 hours, read-out: minimum inhibitory concentration (M.I.C.)
Experimental: as §1

[9] = system: Escherichia coli K-12 JR66/W677; experiment: M.I.C. by standard serial dilution method; format: cell-based; settings: K12JR66/W677, 18 h, read-out: minimum inhibitory concentration (M.I.C.)
Experimental: as §1

[10] = system: Pseudomonas aeruginosa No. 12; experiment: M.I.C. by standard serial dilution method; format: cell-based; settings: P. aeruginosa No. 12, nutrient agar, 37° C, 18 hours, read-out: minimum inhibitory concentration (M.I.C.)
Experimental: as §1

[11] = system: Escherichia coli K-12 W677; experiment: M.I.C. by standard serial dilution method; format: cell-based; settings: K12W677, E. coli K-12 W677, nutrient agar, 37° C, 18 hours, read-out: minimum inhibitory concentration (M.I.C.)
Experimental: as §1

Bacillus subtilis B-558 = experiment: M.I.C. by standard serial dilution method; format: cell-based; settings: B558, B. subtilis B-558, nutrient agar, 37° C, 18 hours, read-out: minimum inhibitory concentration (M.I.C.)
Experimental: as §1

[12] = system: Escherichia coli K-12 ML 1630; experiment: M.I.C. by standard serial dilution method; format: cell-based; settings: K12ML1630, E. coli K-12 ML 1630, nutrient agar, 37° C, 18 hours, read-out: minimum inhibitory concentration (M.I.C.)
Experimental: as §1

[13] = system: Escherichia coli K-12 ML 1629; experiment: M.I.C. by standard serial dilution method; format: cell-based; settings: K12ML1629, E. coli K-12 ML 1629, nutrient agar, 37° C, 18 hours, read-out: minimum inhibitory concentration (M.I.C.)
Experimental: as §1

[14] = system: Pseudomonas aeruginosa TI-13; experiment: M.I.C. by standard serial dilution method; format: cell-based; settings: TI13, P. aeruginosa TI-13, nutrient agar, 37° C, 18 hours, read-out: minimum inhibitory concentration (M.I.C.)
Experimental: as §1

Sarcina lutea PCl 1001 = experiment: M.I.C. by standard serial dilution method; format: cell-based; settings: Micrococcus luteus, PCL1001, nutrient agar, 37° C, 18 hours, read-out: minimum inhibitory concentration (M.I.C.)
Experimental: as §1

Escherichia coli K-12 = experiment: M.I.C. by standard serial dilution method; format: cell-based; settings: K12, E. coli K-12, nutrient agar, 37° C, 18 hours, read-out: minimum inhibitory concentration (M.I.C.)
Experimental: as §1

[15] = system: Escherichia coli K-12 LA 290 R55; experiment: M.I.C. by standard serial dilution method; format: cell-based; settings: K12LA290R55, 18 h, read-out: minimum inhibitory concentration (M.I.C.)
Experimental: as §1

Proteus rettgeri GN 466 = experiment: M.I.C. by standard serial dilution method; format: cell-based; settings: Providencia rettgeri, GN466; Proteus rettgeri GN 466; nutrient agar, 37° C, 18 hours; read-out: minimum inhibitory concentration (M.I.C.)
Experimental: as §1

Escherichia coli NIHJ = experiment: M.I.C. by standard serial dilution method; format: cell-based; settings: E. coli NIHJ, nutrient agar, 37° C, 18 hours, read-out: minimum inhibitory concentration (M.I.C.)
Experimental: as §1

[16] = system: Escherichia coli K-12 LA 290 R64; experiment: M.I.C. by standard serial dilution method; format: cell-based; settings: K12LA290R64, 18 h, read-out: minimum inhibitory concentration (M.I.C.)
Experimental: as §1

[17] = system: Pseudomonas aeruginosa 99; experiment: M.I.C. by standard serial dilution method; format: cell-based; settings: P. aeruginosa 99, nutrient agar, 37° C, 18 hours, read-out: minimum inhibitory concentration (M.I.C.)
Experimental: as §1

[18] = system: Mycobacterium smegmatis ATCC 607; experiment: M.I.C. by standard serial dilution method; format: cell-based; settings: Mycolicibacterium smegmatis, ATCC607, nutrient agar, 37° C, 48 hours, read-out: minimum inhibitory concentration (M.I.C.)
Experimental: as §1

Structure (SMILES): NC[C@H]1O[C@H](O[C@H]2[C@H](O)[C@@H](O[C@H]3O[C@H](CO)[C@@H](O)[C@H](N)[C@H]3O)[C@H](N)C[C@@H]2N)[C@H](O)C[C@@H]1O [3'-deoxykanamycin A]
- antibacterial activity against resistant bacteria [1]: high antibacterial activity against the above-mentioned resistant bacteria

Structure (SMILES): NCCC(O)C(=O)N[C@@H]1C[C@H](N)[C@@H](O[C@H]2O[C@H](CN)[C@@H](O)[C@H](O)[C@H]2O)[C@H](O)[C@H]1O[C@H]1O[C@H](CO)[C@@H](O)[C@H](N)[C@H]1O (stereo partly shown) [1-N-(4-amino-2-hydroxybutyryl)-kanamycin]
- antibacterial activity against resistant bacteria [1]: active against the kanamycin-resistant bacteria

Structure (SMILES): NCC(O)C(=O)N[C@@H]1C[C@H](N)[C@@H](O[C@H]2O[C@H](CN)[C@@H](O)[C@H](O)[C@H]2O)[C@H](O)[C@H]1O[C@H]1O[C@H](CO)[C@@H](O)[C@H](N)[C@H]1O (stereo partly shown) [1-N-isoserylkanamycin]
- antibacterial activity against resistant bacteria [1]: active against the kanamycin-resistant bacteria

Structure (SMILES): NCC(O)C(=O)N[C@@H]1C[C@H](N)[C@@H](O[C@H]2O[C@H](CN)CC[C@H]2N)[C@H](O)[C@H]1O[C@H]1O[C@H](CO)[C@@H](O)[C@H](N)[C@H]1O (stereo partly shown) [1-N-isoseryl-DKB]
- antibacterial activity against resistant bacteria [1]: active against the kanamycin-resistant bacteria

Structure (SMILES): NCC[C@H](O)C(=O)N[C@@H]1C[C@H](N)[C@@H](O[C@H]2O[C@H](CN)[C@@H](O)C[C@H]2N)[C@H](O[C@@H]2O[C@H](CO)[C@@H](O)[C@H]2O)[C@H]1O [Compound No. 5, 1-N-((S)-4-amino-2-hydroxybutyryl)-3'-deoxy-5-O-β-D-ribofuranosylneamine]
- MIC [2]: 3.12 µg/mL (≈ 5.78 µM)
- MIC [3]: > 100 µg/mL
- MIC [4]: 0.39 µg/mL (≈ 0.723 µM)
- MIC (Proteus rettgeri GN 311): 3.12 µg/mL (≈ 5.78 µM)
- MIC (Salmonella typhosa T-63): 0.39 µg/mL (≈ 0.723 µM)
- MIC [5]: 0.78 µg/mL (≈ 1.45 µM)
- MIC [6]: 0.78 µg/mL (≈ 1.45 µM)
- MIC [7]: 0.39 µg/mL (≈ 0.723 µM)
- MIC [8]: 0.39 µg/mL (≈ 0.723 µM)
- MIC [9]: 1.56 µg/mL (≈ 2.89 µM)
- MIC [10]: 25 µg/mL (≈ 46.3 µM)
- MIC [11]: 0.39 µg/mL (≈ 0.723 µM)
- MIC (Bacillus subtilis B-558): < 0.2 µg/mL
- MIC [12]: 1.56 µg/mL (≈ 2.89 µM)
- MIC [13]: 0.39 µg/mL (≈ 0.723 µM)
- MIC [14]: 25 µg/mL (≈ 46.3 µM)
- MIC (Sarcina lutea PCl 1001): 25 µg/mL (≈ 46.3 µM)
- MIC (Escherichia coli K-12): 0.2 µg/mL (≈ 0.371 µM)
- MIC [15]: 0.78 µg/mL (≈ 1.45 µM)
- MIC (Proteus rettgeri GN 466): 0.78 µg/mL (≈ 1.45 µM)
- MIC (Escherichia coli NIHJ): 0.78 µg/mL (≈ 1.45 µM)
- MIC [16]: 0.2 µg/mL (≈ 0.371 µM)
- MIC [17]: 12.5 µg/mL (≈ 23.2 µM)
- MIC [18]: < 0.2 µg/mL
